Laboratory results as given in the supplement of paper PMC10307832.

Each cell line was assayed with CCN1CCN(c2ccc(Nc3cc(N(C)C(=O)Nc4c(Cl)c(OC)cc(OC)c4Cl)ncn3)cc2)CC1 [BGJ398] + CS(=O)(=O)CCNCc1ccc(-c2ccc3ncnc(Nc4ccc(OCc5cccc(F)c5)c(Cl)c4)c3c2)o1 [Lapatinib] (partner 2 µM) (assay: relative viability (nuclei count vs DMSO), 5 days (fraction); higher = more cells survive). Conditions: first compound 0.01 µM.
In short: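 Nuclei were stained with Hoechst during a one-step fixation (final 0.05% Triton X-100, 1% formaldehyde, 1 ug/ml Hoechst) carried out 5 days after dosing, then counted on 4× images. The cells, lung cancer lines in 1536-well plates, had been dosed by pin tool the day after seeding with one drug alone or a fixed anchor-drug dose plus five library-drug doses (not always all listed) in √10 steps. Relative viability is the nuclei count in treated wells divided by that in vehicle wells, and each value is the median of duplicate plates.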

First: NCI-H2085
Second: Calu-6
The relative viability of the first is lower: 0.744 for the first, 1.04 for the second.

First: HCC-366
Second: NCI-H1666
The relative viability of the first is higher: 1.11 for the first, 0.656 for the second.

Compared with NCI-H596, LK-2 is lower in relative viability: 1.16 for the first, 0.887 for the second.

Going from NCI-H2087 to SK-MES-1, the relative viability falls from 0.951 to 0.414.

Compared with H3255, COR-L23 is higher in relative viability: 0.288 for the first, 0.887 for the second.

Going from COR-L 105 to IA-LM, the relative viability rises from 0.379 to 0.864.

First: LOU-NH91
Second: NCI-H2170
The relative viability of the first is higher: 0.733 for the first, 0.289 for the second.

Going from NCI-H2405 to HOP-62, the relative viability falls from 1.15 to 0.965.

Going from HCC-44 to A549, the relative viability falls from 0.973 to 0.885.

Compared with LU99A, BEN is lower in relative viability: 0.935 for the first, 0.608 for the second.

Compared with HARA, HCC-78 is lower in relative viability: 0.67 for the first, 0.568 for the second.

Compared with NCI-H322M, LCLC-97TM1 is lower in relative viability: 0.675 for the first, 0.525 for the second.

Going from NCI-H2009 to A-427, the relative viability rises from 0.863 to 1.07.

Going from NCI-H661 to NCI-H1734, the relative viability rises from 0.501 to 0.992.

First: NCI-H460
Second: NCI-H2347
The relative viability of the first is higher: 1.02 for the first, 0.913 for the second.

First: SK-LU-1
Second: NCI-H1395
The relative viability of the first is lower: 0.878 for the first, 1.1 for the second.

Same assay, conditions: first compound 0.03162 µM

Going from NCI-H2085 to Calu-6, the relative viability rises from 0.784 to 1.13.

First: HCC-366
Second: NCI-H1666
The relative viability of the first is higher: 1.07 for the first, 0.704 for the second.

Compared with NCI-H596, LK-2 is lower in relative viability: 0.937 for the first, 0.754 for the second.

Going from NCI-H2087 to SK-MES-1, the relative viability falls from 0.975 to 0.44.

Compared with COR-L23, COR-L 105 is lower in relative viability: 0.903 for the first, 0.303 for the second.

Compared with IA-LM, LOU-NH91 is higher in relative viability: 0.742 for the first, 0.771 for the second.

First: NCI-H2170
Second: NCI-H2405
The relative viability of the first is lower: 0.197 for the first, 1.32 for the second.

First: HOP-62
Second: HCC-44
The relative viability of the first is higher: 1.16 for the first, 1.01 for the second.

Compared with A549, LU99A is lower in relative viability: 0.99 for the first, 0.896 for the second.

First: BEN
Second: HARA
The relative viability of the first is higher: 0.828 for the first, 0.531 for the second.

Going from HCC-78 to NCI-H322M, the relative viability falls from 1.04 to 0.561.

Compared with LCLC-97TM1, NCI-H2009 is higher in relative viability: 0.745 for the first, 0.966 for the second.

Compared with A-427, NCI-H661 is lower in relative viability: 1.01 for the first, 0.595 for the second.

First: NCI-H1734
Second: NCI-H460
The relative viability of the first is lower: 1.03 for the first, 1.05 for the second.

Compared with NCI-H2347, SK-LU-1 is higher in relative viability: 1.02 for the first, 1.07 for the second.

With NCI-H1395 the relative viability was 1.75.

Same assay, conditions: first compound 0.1 µM

First: NCI-H2085
Second: Calu-6
The relative viability of the first is lower: 0.802 for the first, 1.07 for the second.

First: HCC-366
Second: NCI-H1666
The relative viability of the first is higher: 1.07 for the first, 0.508 for the second.

First: NCI-H596
Second: LK-2
The relative viability of the first is higher: 0.974 for the first, 0.488 for the second.

First: NCI-H2087
Second: SK-MES-1
The relative viability of the first is higher: 1.09 for the first, 0.448 for the second.

Going from H3255 to COR-L23, the relative viability rises from 0.238 to 1.15.

Going from COR-L 105 to IA-LM, the relative viability rises from 0.329 to 0.846.

Compared with LOU-NH91, NCI-H2170 is lower in relative viability: 0.731 for the first, 0.256 for the second.

First: NCI-H2405
Second: HOP-62
The relative viability of the first is lower: 1.05 for the first, 1.18 for the second.

First: HCC-44
Second: A549
The relative viability of the first is higher: 1.01 for the first, 0.952 for the second.

Compared with LU99A, BEN is lower in relative viability: 1.07 for the first, 0.7 for the second.

Going from HARA to HCC-78, the relative viability rises from 0.472 to 1.

Going from NCI-H322M to LCLC-97TM1, the relative viability rises from 0.551 to 0.901.

Going from NCI-H2009 to A-427, the relative viability rises from 0.965 to 1.05.

First: NCI-H661
Second: NCI-H1734
The relative viability of the first is lower: 0.473 for the first, 1.11 for the second.

First: NCI-H460
Second: NCI-H2347
The relative viability of the first is higher: 1.6 for the first, 0.944 for the second.

First: SK-LU-1
Second: NCI-H1395
The relative viability of the first is higher: 0.979 for the first, 0.823 for the second.

Same assay, conditions: first compound 0.3162 µM

First: NCI-H2085
Second: Calu-6
The relative viability of the first is lower: 0.677 for the first, 1.09 for the second.

First: HCC-366
Second: NCI-H1666
The relative viability of the first is higher: 1.06 for the first, 0.7 for the second.

Compared with NCI-H596, LK-2 is lower in relative viability: 0.824 for the first, 0.352 for the second.

First: NCI-H2087
Second: SK-MES-1
The relative viability of the first is higher: 1.17 for the first, 0.396 for the second.

Compared with H3255, COR-L23 is higher in relative viability: 0.241 for the first, 0.992 for the second.

First: COR-L 105
Second: IA-LM
The relative viability of the first is lower: 0.386 for the first, 0.704 for the second.

Compared with LOU-NH91, NCI-H2170 is lower in relative viability: 0.727 for the first, 0.268 for the second.

First: NCI-H2405
Second: HOP-62
The relative viability of the first is higher: 1.07 for the first, 1.02 for the second.

First: HCC-44
Second: A549
The relative viability of the first is higher: 1.04 for the first, 0.919 for the second.

First: LU99A
Second: BEN
The relative viability of the first is higher: 0.913 for the first, 0.656 for the second.

Going from HARA to HCC-78, the relative viability rises from 0.362 to 0.707.

First: NCI-H322M
Second: LCLC-97TM1
The relative viability of the first is lower: 0.581 for the first, 0.979 for the second.

Going from NCI-H2009 to A-427, the relative viability rises from 0.924 to 0.938.

Going from NCI-H661 to NCI-H1734, the relative viability rises from 0.457 to 0.961.

Compared with NCI-H460, NCI-H2347 is lower in relative viability: 1 for the first, 0.926 for the second.

First: SK-LU-1
Second: NCI-H1395
The relative viability of the first is higher: 0.702 for the first, 0.569 for the second.

Same assay, conditions: first compound 1 µM

Going from NCI-H2085 to Calu-6, the relative viability rises from 0.663 to 1.03.

First: HCC-366
Second: NCI-H1666
The relative viability of the first is higher: 0.924 for the first, 0.255 for the second.

First: NCI-H596
Second: LK-2
The relative viability of the first is higher: 0.496 for the first, 0.26 for the second.

Compared with NCI-H2087, SK-MES-1 is lower in relative viability: 0.885 for the first, 0.376 for the second.

Going from H3255 to COR-L23, the relative viability rises from 0.219 to 0.908.

Going from COR-L 105 to IA-LM, the relative viability rises from 0.382 to 0.758.

Going from LOU-NH91 to NCI-H2170, the relative viability falls from 0.688 to 0.264.

First: NCI-H2405
Second: HOP-62
The relative viability of the first is lower: 0.857 for the first, 1.04 for the second.

First: HCC-44
Second: A549
The relative viability of the first is higher: 0.993 for the first, 0.819 for the second.

Compared with LU99A, BEN is lower in relative viability: 0.85 for the first, 0.671 for the second.

Going from HARA to HCC-78, the relative viability rises from 0.217 to 0.581.

Going from NCI-H322M to LCLC-97TM1, the relative viability rises from 0.58 to 0.868.

First: NCI-H2009
Second: A-427
The relative viability of the first is higher: 0.955 for the first, 0.949 for the second.

First: NCI-H661
Second: NCI-H1734
The relative viability of the first is lower: 0.49 for the first, 1.06 for the second.

Going from NCI-H460 to NCI-H2347, the relative viability falls from 1.23 to 0.893.

SK-LU-1 was tested, and the relative viability was 0.945.
